Data published in patent publication US4708966A, “Novel anti-inflammatory agents, pharmaceutical compositions and methods for reducing inflammation” (The Procter & Gamble Company, priority 1986, dated 1987).

Experiments:
[1] = system: oxazolone-induced inflamed mouse ear; assay: Oxazolone-Induced Inflamed Mouse Ear Test (Ox-IMET); format: in vivo, Adult male Cox ICR mice; details: topical, 25 ul of 10% in ethanol, 24 h after challenge, vs control group, read-out: Percent Inhibition
Protocol: Oxazolone-Induced Inflamed Mouse Ear Test ("Ox-IMET")
Adult male Cox ICR mice, 25-35 g, are sensitized by applying 3% oxazolone in olive oil to the clipped abdomen of each animal using a cotton swab. One week later, the mice are challenged on the inner surface of the left ear with 3% oxazolone in aceotone. At the same time 25 ul of the test compound (10% in ethanol) is applied to the outer surface of the same ear. Twenty four hours after the challenge, the animals are sacrificed by cervical dislocation and both ears are removed. A 5 mm punch biopsy is removed from both ears and is weighed to the nearest 0.1 mg on a Cahn electrobalance. Ten animals are used per group. The study usually consists of 4 to 6 groups, of which one is a control group which is challenged on the left ear, but is not treated with a test compound. The results are expressed as percent inhibition of the swelling response compared to the control group. Statistical tests for significance between groups are made using a one way analysis of variance of the ear weight differences.

[2] = system: adjuvant arthritis (modified Freund's adjuvant); assay: Adjuvant Arthritis - Therapeutic; format: in vivo, Male Sprague-Dawley rats; details: for Body Weights % Increase / Bone Resorption % Inhibition / Paw Volume % Decrease: 2 x/day, days 20 through 28
Protocol: Adjuvant Arthritis Methodology
Male Sprague-Dawley rats weighing 167-170 gm are allowed to acclimate to the laboratory for at least 3 days. Ten rats are then assigned to the healthy control group and the remaining rats are assigned to the arthritic group. On day 0, the rats in the arthritic group are injected subcutaneously in the middle of their tail with a modified Freund's adjuvant (MFA) at a dosage of 0.05 ml/100 gm body weight. The MFA is made by grinding Mycobacterium butyricum (Mb) and then mixing with mineral oil at a concentration of 10 mg Mb/ml of mineral oil. This is mixed in an Omni mixer for 45 minutes.
Paw volumes and body weights are determined on days -1, 6, 13, 19, 26, and 29. On day 19, paw volume changes from day -1 are determined for the arthritic group. The rats with paw volume changes≥0.50 ml but ≤2.50 ml are randomized by paw volume changes into the treatment groups on day 20. […] On day 29, two representative rats from each treatment group are photographed, paw volumes and body weights are determined, and then the rats are sacrificed with CO2 and x-rays are taken.
The radiographs are used to grade bone resorption. Bone resorption is graded in 20 areas of the fore and hind paws. The areas for grading on the hind paw are: distal femur end, proximal tibia and tibula, distal end of the tibia and the small bone under the tibia, calcaneous, tarsus, and metatarsus. The areas on the fore paws are: radius, ulna, carpus, and metacarpus. Each area is given a grade of 0 (no resorption) or 1 (resorption) for possible grade of 20 of each animal.

[3] = antioxidant and free radical scavenging activity
[4] = gastric damage / gastrointestinal irritation; format: in vivo; details: levels significantly greater than the therapeutic dose, test animals
[5] = oral anti-pyretic activity; format: in vivo
Protocol: In order to determine and assess pharmacological activity, testing of these compounds in animals is carried out using various assays known to those skilled in the art. […] Examples of such known tests include the carrageenan rat edema test, the oxazolone-induced inflamed mouse ear test, and the arachidonic acid-induced inflamed mouse ear test. Anti-pyretic acitivity may be tested using art-known rat models, and analgesic acitivty may be tested in art-known models such as the acetylcholine model in mice, the Randall-Selitto model in rats, and the hot-plate test in mice. Another useful art-known test is the adjuvant arthritis test which is a useful model for assessing anti-inflammatory activity and anti-resorptive activity in a chronic, rather than acute, model.

rheumatoid arthritis = assay: tablets in a patient suffering from rheumatoid arthritis; format: in vivo; details: tablet, 200 mg Compound 11, oral, two times daily
Protocol: (§1) Pharmaceutical Compositions in Tablet Form
(§2) Tablets are prepared by conventional methods, such as mixing and direct compaction, formulated as follows: […]

osteoarthritis = assay: tablets in a patient suffering from osteoarthritis; format: in vivo; details: tablet, 200 mg Compound 11, twice daily
Protocol: as §1, §2

[6] = system: rheumatoid arthritis or osteoarthritis; assay: capsules in a patient afflicted with rheumatoid arthritis or osteoarthritis; format: in vivo; details: capsule, 200 mg Compound 11, oral, once a day
Protocol: Pharmaceutical Compositions in Capsule Form
Capsules are prepared by conventional methods, comprised as follows: […]

## C#CCCCC(=O)c1cc(C(C)(C)C)c(O)c(C(C)(C)C)c1 [Compound 11, 4-(5'-hexynoyl)-2,6-di-t-butylphenol]
[1]
  inhibition in vivo at 10 %: 34.1%
[2]; 5 mg/kg, oral
  Body Weights % Increase: 36%
  Bone Resorption % Inhibition: 37%
  Paw Volume % Decrease: 75%
[2]; 15 mg/kg, oral
  Body Weights % Increase: 34%
  Bone Resorption % Inhibition: 50%
  Paw Volume % Decrease: 83%
[2]; arthritic animal models
  decrease of bone resorption in arthritic animal models: ability to decrease bone resorption
[2]; oral, dosed therapeutically
  oral anti-arthritic activity in a rat adjuvant arthritis model: anti-arthritic activity
[3]
  antioxidant and free radical scavenging activity: antioxidant and free radical scavenging activity
[4]
  gastric damage after oral dosing: very low or no gastric damage
[5]
  oral anti-pyretic activity: oral anti-pyretic activity
Rheumatoid arthritis
  reduction of inflammation: significantly reduces the inflammation
osteoarthritis
  benefit: significant benefit
[6]
  reduction of symptomology: substantially reduces the symptomology
